{"source": "paper PMC7010297", "about": "“How the initiating ribosome copes with ppGpp to translate mRNAs” (PLoS Biology, 2020)", "key": {"[1]": {"biological_target": "T1, 70S pre-IC (50S joining to 30S IC) (Escherichia coli, UniProt P0A705)", "T1 construct": "6xHis (N); made in house", "T1 sequence (P0A705 whole entry, looked up)": "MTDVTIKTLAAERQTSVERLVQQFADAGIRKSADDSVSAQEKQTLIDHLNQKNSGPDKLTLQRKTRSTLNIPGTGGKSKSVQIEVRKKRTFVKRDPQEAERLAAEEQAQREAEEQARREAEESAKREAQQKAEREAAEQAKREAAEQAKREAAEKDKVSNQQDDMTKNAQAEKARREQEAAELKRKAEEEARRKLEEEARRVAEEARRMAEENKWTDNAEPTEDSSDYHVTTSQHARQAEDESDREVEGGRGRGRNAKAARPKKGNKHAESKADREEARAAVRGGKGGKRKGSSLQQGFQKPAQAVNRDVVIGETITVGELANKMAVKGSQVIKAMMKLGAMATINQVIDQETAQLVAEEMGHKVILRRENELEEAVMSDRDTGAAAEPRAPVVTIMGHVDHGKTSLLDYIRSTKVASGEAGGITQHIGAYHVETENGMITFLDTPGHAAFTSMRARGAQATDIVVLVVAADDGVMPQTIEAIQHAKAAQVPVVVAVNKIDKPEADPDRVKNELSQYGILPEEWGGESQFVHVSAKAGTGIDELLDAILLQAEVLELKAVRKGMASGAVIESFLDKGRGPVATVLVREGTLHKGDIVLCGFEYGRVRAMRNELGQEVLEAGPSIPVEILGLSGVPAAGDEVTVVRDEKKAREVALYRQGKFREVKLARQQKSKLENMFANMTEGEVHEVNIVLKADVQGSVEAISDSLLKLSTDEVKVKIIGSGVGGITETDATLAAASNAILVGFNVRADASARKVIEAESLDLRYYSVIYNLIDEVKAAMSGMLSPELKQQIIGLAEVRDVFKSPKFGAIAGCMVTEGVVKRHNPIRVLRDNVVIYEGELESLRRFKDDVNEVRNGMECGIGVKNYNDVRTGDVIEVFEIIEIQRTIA", "assay": "70S pre-IC formation by light scattering, stopped-flow", "format": "biochemical", "conditions": "30S complexes formed with 0.2 mM nucleotide, mixed with 50S subunits", "protocol": "(§1) Continuous lines indicate nonlinear regression fittings with a quadratic equation. Three measurements were performed; mean and standard deviation are plotted (S1 Data). (B) as (A) to measure the concentration dependence for each tested guanosine nucleotide at constant IF2 (1 μM). […] Continuous lines show best fits using exponential functions. (D) Formation of 70S IC as measured by Bpy-tRNAi accommodation in the P site of the ribosome; 0.1 μM 30S ICs were formed with Bpy-tRNAi and rapidly mixed with 0.3 μM 50S subunits on a stopped-flow apparatus as described in [14]. Colors are as in (C). Continuous lines show best fits using an exponential function for a single reaction step. Each stopped-flow trace results from the mean of 5 to 7 replicates.\n(§2) (A) Scheme of 70S IC formation. […] Time traces were analyzed by nonlinear regression with exponential terms. […] Formation of 70S IC, as measured by Bpy-tRNAi accommodation in the absence (F) or presence of 200 μM ppGpp (G). Time traces were analyzed by nonlinear regression with one exponential term. […] Continuous lines show best fits using an exponential function for a single reaction step. All time traces are mean values of 5 to 10 replicates. Bar graphs show mean and standard errors (error bars) derived from the nonlinear regression fitting (D,E,H,I) (S1 Data).\n(§3) To measure 70S pre-IC formation, a SX-20 stopped-flow instrument (Applied Photophysics, Leatherhead, UK) was set up for LS recording with an excitation wavelength of 430 nm. Scattered light was measured at an angle of 90° without a filter. Pseudo first-order conditions were approximated by using ≥3-fold excess of 50S subunits over 30S ICs; 0.2 μM 30S ICs were rapidly mixed in the instrument with 0.6 μM 50S at 25 °C. Bpy-tRNAi accommodation was measured essentially as described elsewhere. Briefly, 0.2 μM 30S ICs were formed using Bpy-tRNAi and rapidly mixed with 0.6 μM 50S at 25 °C. Fluorescence was excited at 470 nm and measured after a 495-nm longpass filter. Individual traces (6–11 traces) were averaged, and the resulting kinetic curve was approximated by single (F = A0 + A1*exp (-kapp1*t)) or double (F = A0 + A1*exp (-kapp1*t) + A2*exp (-kapp2*t)) exponential fit using Graphpad Prism 6.0 software (GraphPad, San Diego, California)."}, "[2]": {"biological_target": "T2, 30S IC (30S-bound IF2, Bpy-tRNAi) (Escherichia coli, UniProt P0A705)", "T2 construct": "6xHis (N); made in house", "T2 sequence (P0A705 whole entry, looked up)": "as above", "assay": "30S IC formation measured by MST at increasing concentrations of IF2 with guanosine nucleotides", "format": "binding", "conditions": "Fig 2A", "description": "(§4) To monitor the interaction of initiator tRNA and 30S ribosomal subunits, we used Microscale Thermophoresis (MST) with a fluorescently labelled initiator tRNA (Bpy-tRNAi) (Fig 1B). MST allows to measure fluorescence in a constrained space. Changes on the readout derive from molecular drifts resulting from small thermal equilibrium perturbations. Upon equilibrium perturbations, the patterns of Bpy-tRNAi migration away from the observation space are related to bound and unbound states (Fig 1B). […] On the contrary, a decrease in thermophoresis indicated the dissociation of Bpy-tRNAi. The relation between fluorescence measured at both equilibriums (Ff to Fi, after and prior to the perturbation, respectively) as a function of ligand concentration allowed to determine dissociation constants of the interaction (Fig 1C).\nas §1"}, "IF2-bound 30S IC": {"biological_target": "T3, IF2-bound 30S IC (Escherichia coli, UniProt P0A705)", "T3 construct": "6xHis (N); made in house", "T3 sequence (P0A705 whole entry, looked up)": "as above", "assay": "30S IC formation by MST, guanosine nucleotide titration", "format": "binding", "conditions": "for MST Average / MST Replicates (a.u.): Fig 2B", "description": "as §4, §1\nMST was calculated from the respective fluorescence time dependencies (S3 Fig). […] Symbols as in (B). […] Continuous lines indicate nonlinear regression fittings with quadratic (B and E) or same-site competition (G) functions. Three measurements were performed; mean and standard deviations are plotted (S1 Data)."}, "70S IC": {"biological_target": "T4, 70S IC (Escherichia coli, UniProt P0A705)", "T4 construct": "6xHis (N); made in house", "T4 sequence (P0A705 whole entry, looked up)": "as above", "assay": "70S IC formation by Bpy-tRNAi accommodation, stopped-flow", "format": "biochemical", "protocol": "as §1, §2, §3"}}, "note": "Values joined by “and” are separate entries in the source; they are usually repeats but may differ in a detail not shown here. Equal values may be shown once.", "data": [{"compound": "Nc1nc2c(ncn2[C@@H]2O[C@H](COP(=O)(O)OP(=O)(O)OP(=O)(O)O)[C@@H](OP(=O)(O)OP(=O)(O)O)[C@H]2O)c(=O)[nH]1", "note": "[pppGpp]", "values": [{"measurement": "kapp of 70S pre-IC formation (LS)", "setting": "[1]", "result": "2.9 ± 0.3", "unit": "s^–1"}, {"measurement": "MST Average", "setting": "[2]; IF2 0.16 µM", "result": 944.96, "unit": "a.u."}, {"measurement": "MST Replicates (a.u.)", "setting": "[2]; IF2 0.16 µM, in the presence of the nucleotide", "result": "945.84 a.u. (2×) and 943.18 a.u."}, {"measurement": "MST Average", "setting": "[2]; IF2 0.31 µM", "result": 951.85, "unit": "a.u."}, {"measurement": "MST Replicates (a.u.)", "setting": "[2]; IF2 0.31 µM", "result": "948.28 a.u. and 951.55 a.u. and 955.73 a.u."}, {"measurement": "MST Average", "setting": "[2]; IF2 0.63 µM", "result": 965.81, "unit": "a.u."}, {"measurement": "MST Replicates (a.u.)", "setting": "[2]; IF2 0.63 µM", "result": "963.82 a.u. and 965.27 a.u. and 968.34 a.u."}, {"measurement": "MST Average", "setting": "[2]; IF2 1.25 µM", "result": 989.55, "unit": "a.u."}, {"measurement": "MST Replicates (a.u.)", "setting": "[2]; IF2 1.25 µM", "result": "985.24 a.u. and 988.50 a.u. and 994.92 a.u."}, {"measurement": "MST Average", "setting": "[2]; IF2 2.50 µM", "result": 1020.82, "unit": "a.u."}, {"measurement": "MST Replicates (a.u.)", "setting": "[2]; IF2 2.50 µM", "result": "1014.01 a.u. and 1021.45 a.u. and 1027.00 a.u."}, {"measurement": "MST Average", "setting": "[2]; IF2 5.00 µM", "result": 1015.83, "unit": "a.u."}, {"measurement": "MST Replicates (a.u.)", "setting": "[2]; IF2 5.00 µM", "result": "1011.56 a.u. and 1015.17 a.u. and 1020.77 a.u."}, {"measurement": "MST Average", "setting": "IF2-bound 30S IC; nucleotide 0.005 µM", "result": 927.64, "unit": "a.u."}, {"measurement": "MST Replicates (a.u.)", "setting": "IF2-bound 30S IC; nucleotide 0.005 µM, constant IF2 (1 μM)", "result": "925.66 a.u. and 928.15 a.u. and 929.12 a.u."}, {"measurement": "MST Average", "setting": "IF2-bound 30S IC; nucleotide 0.01 µM", "result": 929.62, "unit": "a.u."}, {"measurement": "MST Replicates (a.u.)", "setting": "IF2-bound 30S IC; nucleotide 0.01 µM", "result": "928.28 a.u. and 930.44 a.u. and 930.13 a.u."}, {"measurement": "MST Average", "setting": "IF2-bound 30S IC; nucleotide 0.02 µM", "result": 931.44, "unit": "a.u."}, {"measurement": "MST Replicates (a.u.)", "setting": "IF2-bound 30S IC; nucleotide 0.02 µM", "result": "929.17 a.u. and 931.64 a.u. and 933.52 a.u."}, {"measurement": "MST Average", "setting": "IF2-bound 30S IC; nucleotide 0.04 µM", "result": 936.26, "unit": "a.u."}, {"measurement": "MST Replicates (a.u.)", "setting": "IF2-bound 30S IC; nucleotide 0.04 µM", "result": "935.68 a.u. and 936.43 a.u. and 936.67 a.u."}, {"measurement": "MST Average", "setting": "IF2-bound 30S IC; nucleotide 0.08 µM", "result": 942.88, "unit": "a.u."}, {"measurement": "MST Replicates (a.u.)", "setting": "IF2-bound 30S IC; nucleotide 0.08 µM", "result": "942.08 a.u. and 943.53 a.u. and 943.02 a.u."}, {"measurement": "MST Average", "setting": "IF2-bound 30S IC; nucleotide 0.16 µM", "result": 950.27, "unit": "a.u."}, {"measurement": "MST Replicates (a.u.)", "setting": "IF2-bound 30S IC; nucleotide 0.16 µM", "result": "947.31 a.u. and 952.19 a.u. and 951.31 a.u."}, {"measurement": "MST Average", "setting": "IF2-bound 30S IC; nucleotide 0.31 µM", "result": 960.78, "unit": "a.u."}, {"measurement": "MST Replicates (a.u.)", "setting": "IF2-bound 30S IC; nucleotide 0.31 µM", "result": "960.77 a.u. and 960.89 a.u. and 960.69 a.u."}, {"measurement": "MST Average", "setting": "IF2-bound 30S IC; nucleotide 0.63 µM", "result": 981.69, "unit": "a.u."}, {"measurement": "MST Replicates (a.u.)", "setting": "IF2-bound 30S IC; nucleotide 0.63 µM", "result": "982.02 a.u. and 981.68 a.u. and 981.38 a.u."}, {"measurement": "MST Average", "setting": "IF2-bound 30S IC; nucleotide 1.25 µM", "result": 1004.44, "unit": "a.u."}, {"measurement": "MST Replicates (a.u.)", "setting": "IF2-bound 30S IC; nucleotide 1.25 µM", "result": "1006.47 a.u. and 1004.17 a.u. and 1002.69 a.u."}, {"measurement": "MST Average", "setting": "IF2-bound 30S IC; nucleotide 2.50 µM", "result": 1012.89, "unit": "a.u."}, {"measurement": "MST Replicates (a.u.)", "setting": "IF2-bound 30S IC; nucleotide 2.50 µM", "result": "1008.41 a.u. and 1015.77 a.u. and 1014.48 a.u."}, {"measurement": "MST Average", "setting": "IF2-bound 30S IC; nucleotide 5.00 µM", "result": 1025.14, "unit": "a.u."}, {"measurement": "MST Replicates (a.u.)", "setting": "IF2-bound 30S IC; nucleotide 5.00 µM", "result": "1023.12 a.u. and 1027.23 a.u. and 1025.07 a.u."}, {"measurement": "MST Average", "setting": "IF2-bound 30S IC; nucleotide 10.00 µM", "result": 1030.92, "unit": "a.u."}, {"measurement": "MST Replicates (a.u.)", "setting": "IF2-bound 30S IC; nucleotide 10.00 µM", "result": "1031.01 a.u. and 1031.12 a.u. and 1030.63 a.u."}, {"measurement": "MST Average", "setting": "IF2-bound 30S IC; nucleotide 20.00 µM", "result": 1013.38, "unit": "a.u."}, {"measurement": "MST Replicates (a.u.)", "setting": "IF2-bound 30S IC; nucleotide 20.00 µM", "result": "1013.59 a.u. and 1013.77 a.u. and 1012.79 a.u."}, {"measurement": "Kd", "setting": "IF2-bound 30S IC; nucleotide titration at constant IF2 (1 μM), read-out: KD for the IF2-bound 30S IC", "result": "500 ± 100", "unit": "nM"}, {"measurement": "kapp of Bpy-tRNAi accommodation (70S IC formation)", "setting": "70S IC; 30S ICs formed with 0.2 mM nucleotide, mixed with 50S subunits", "result": "1.2 ± 0.2", "unit": "s^–1"}, {"measurement": "Bpy-tRNAi accommodation slower than with GTP", "setting": "70S IC; compared to GTP-bound IF2", "result": 2, "unit": "fold"}]}]}
